# Measurements reported in patent US20230321085A1, “COMPOUND FOR USE IN THE TREATMENT OF DRY MOUTH” (ASAHI PHARMA CO., LTD., priority 2020, published 2023).
# Experiments:
# [1] = system: healthy non-elderly male and female subjects; experiment: single ascending oral dose clinical study of the compound of the invention (first part); assay type: in vivo, human; settings: single oral dose 1, 3, 10, 30, 100, 150 mg
# Procedure: In the first part of a randomized, subject- and investigator-blinded, placebo-controlled, single ascending oral dose, parallel group study comprising of 7 cohorts (cohorts 1.1 to 1.7) the compound of the invention was administered at dose levels of 1, 3, 10, 30, 100, and 150 mg. Each cohort consisted of 8 healthy non-elderly male and female subjects who were randomized to receive the compound or matching placebo in a 3:1 ratio.
# After a screening period of 21 days, eligible subjects who had signed an informed consent form (ICF) to participate in the study were residential for a single treatment period of 5 days/4 nights. Subjects were admitted to the clinical unit on day −1. After randomization on day 1, subjects received a single oral dose of the compound or matching placebo under fasting. Each cohort was completed with an end-of-study visit, which took place 5 to 9 days after the last pharmacokinetic sample had been collected (or early discontinuation from the study).
# awake rats = experiment: effect on salivation in awake rats (oral administration); assay type: in vivo, rat; settings: for duration of effect on salivation: oral administration to awake rats
# Procedure: Pilocarpine therefore alleviates the dry mouth symptoms, but it leads to hyperhidrosis as a further side effect. Moreover, experiments in rats have shown that the effect of pilocarpine on salivation is only short-lived and that initial salivation levels are approached after about 60 minutes (FIG. 1).
# Moreover, experiments have shown that its effect on salivation is long-lasting (FIG. 2 as well as FIGS. 3, 4 and 5).
# [2] = system: healthy non-elderly and elderly male and female subjects; experiment: multiple ascending oral dose clinical study of the compound of the invention (second part); assay type: in vivo, human; settings: multiple oral doses 10, 30, 100, 150 mg
# Procedure: The second part of the study investigated, multiple ascending oral doses in 4 cohorts (cohorts 2.1 to 2.4). Each cohort consisted of 12 healthy non-elderly male and female subjects, one optional cohort (cohort 2.5) consisting of 12 healthy nonelderly male and female subjects and one cohort (cohort 2.6) consisting of 12 healthy elderly male and female subjects who were randomized to receive the compound or matching placebo in a 3:1 ratio.
# Actual dose levels were 10, 30, 100 and 150 mg of the compound (cohorts 2.1 to 2.4, respectively). The optional cohort 2.5 was not enrolled. The actual dose level for the elderly cohort (cohort 2.6) was 150 mg of the compound.
# Sentinel dosing was employed for all cohorts. The first 2 subjects within a cohort (1 subject received the compound and 1 subject received matching placebo) were dosed at least 5 minutes apart. These 2 subjects were monitored for safety for 48 hours after receiving the first dose while dosing was continued. The remaining 10 subjects (8 with the compound and 2 with matching placebo) were divided into 2 sub-cohorts and were dosed at least 48 hours after the first 2 subjects with 48 hours between the 2 sub-cohorts.
# [3] = clinical study with a reference M3 PAM (similar to first study in Example 2); assay type: in vivo, human; settings: dose levels of 1, 3, 10, 30 and 90 mg, FIG. 6
# Procedure: In a study similar to the first study in Example 2, a known M3 positive allosteric modulator reference compound (example 8 of EP 2 963 036) with the following structure
# was administered in dose levels of 1, 3, 10, 30 and 90 mg.
# healthy subjects = experiment: Phase 1 study of the effect of pilocarpine on salivary secretion in healthy subjects; assay type: in vivo, human; settings: for participants reporting hyperhidrosis as side effect: periods 1 to 4
# Procedure: A Phase 1 study to investigate the effect of pilocarpine on salivary secretion was conducted in 12 healthy subjects. The study was conducted as a randomized, subject- and investigator-blinded, placebo-controlled, oral dose clinical study using a 5-way balanced extra period design. Pilocarpine capsules containing 2.5 mg were administered orally (1 capsule for a 2.5 mg dose, 2 capsules for a dose of 5.0 mg pilocarpine and 4 capsules for a dose of 10 mg pilocarpine). Subjects were admitted to the clinical unit on day 1 and were residential for a period of 6 days and 5 nights. Subjects were randomized to 1 of 4 treatment sequences on day 1 prior to study drug administration. Each study period was approximately 1 day and subjects received the different oral doses of the study drug (pilocarpine or placebo to match) in periods 1 through 5. There was a 4-hour saliva collection period following every dose and a washout period of at least 24 hours between doses. To assess the pharmacodynamic effect of pilocarpine on saliva secretion, saliva samples were collected over 5-minute intervals from pre-dose until 4 hours post-dose at the timepoints 0.5, 0.75, 1.0, 1.5, 2.0, 3.0 and 4.0 h.
SMILES,hyperhidrosis as a side effect [1],salivary secretion rates ([1]; FIG. 4),duration of effect on salivation (awake rats) [h],hyperhidrosis as a side effect [2],salivary secretion rates ([2]; FIG. 5),impact on salivation [3],sweating (healthy subjects; clinically relevant doses (5 mg and 10 mg qd)),"effect on salivation (healthy subjects; human trials, 2.5, 5 and 10 mg pilocarpine)",participants reporting hyperhidrosis as side effect (healthy subjects; pilocarpine dose of 5 mg) [%],participants reporting hyperhidrosis as side effect (healthy subjects; pilocarpine dose of 10 mg) [%],"time after which initial salivation levels are approached (awake rats; rats, FIG. 1)"
C[C@@H]1CCCN1Cc1sc(NC(=O)c2cnc(N3CCN(CCC(=O)O)[C@@H](C)C3)cn2)nc1-c1cc(Cl)cs1 [compound of the invention],not reported,increased salivary secretion rates,≥ 8,not reported,increased salivary secretion rates,–,–,–,–,–,–
CC[C@@H]1CCCN1Cc1sc(NC(=O)c2cnc(N3CCC(C(=O)O)CC3)cn2)nc1-c1ccc(OC)c(C(F)(F)F)c1 [example 8 of EP 2 963 036],–,–,–,–,–,do not significantly impact salivation,–,–,–,–,–
CC[C@@H]1C(=O)OC[C@@H]1Cc1cncn1C [pilocarpine],–,–,≤ 1,–,–,–,a significant number of the patients suffered from sweating,increased salivation,8.3,50,about 60 minutes
